From PubChem BioAssay AID1963843 (Molecular Pharmacology Branch, DTP, NCI, 2024)

Test system: 616215-338-R-J1-PDC complex spheroid viability
Experiment: Anticancer human tumor 616215-338-R-J1-PDC patient-derived colon adenocarcinoma cell line growth inhibition [POLQ]
Conditions: for IC50: curve of first compound; for viability, T/C: stronger effect = lower value
Summary of the method: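 Three-cell-type spheroids modelling solid tumor plus stroma served as the readout system; POL inhibitors were tested individually and in combination, concentration ranges set by clinical Cmax where known.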

[1] = second compound 0.0316 µM, first compound 0.0316 µM
[2] = second compound 0.0316 µM, first compound 0.1 µM
[3] = second compound 0.0316 µM, first compound 0.316 µM
[4] = second compound 0.0316 µM, first compound 1 µM
[5] = second compound 0.0316 µM, first compound 3.16 µM
[6] = second compound 0.0316 µM, first compound 10 µM
[7] = second compound 0.1 µM, first compound 0.0316 µM
[8] = second compound 0.1 µM, first compound 0.1 µM
[9] = second compound 0.1 µM, first compound 0.316 µM
[10] = second compound 0.1 µM, first compound 1 µM
[11] = second compound 0.1 µM, first compound 3.16 µM
[12] = second compound 0.1 µM, first compound 10 µM
[13] = second compound 0.316 µM, first compound 0.0316 µM
[14] = second compound 0.316 µM, first compound 0.1 µM
[15] = second compound 0.316 µM, first compound 0.316 µM
[16] = second compound 0.316 µM, first compound 1 µM
[17] = second compound 0.316 µM, first compound 3.16 µM
[18] = second compound 0.316 µM, first compound 10 µM
[19] = second compound 1 µM, first compound 0.0316 µM
[20] = second compound 1 µM, first compound 0.1 µM
[21] = second compound 1 µM, first compound 0.316 µM
[22] = second compound 1 µM, first compound 1 µM
[23] = second compound 1 µM, first compound 3.16 µM
[24] = second compound 1 µM, first compound 10 µM
[25] = second compound 3.16 µM, first compound 0.0316 µM
[26] = second compound 3.16 µM, first compound 0.1 µM
[27] = second compound 3.16 µM, first compound 0.316 µM
[28] = second compound 3.16 µM, first compound 1 µM
[29] = second compound 3.16 µM, first compound 3.16 µM
[30] = second compound 3.16 µM, first compound 10 µM
[31] = second compound 10 µM, first compound 0.0316 µM
[32] = second compound 10 µM, first compound 0.1 µM
[33] = second compound 10 µM, first compound 0.316 µM
[34] = second compound 10 µM, first compound 1 µM
[35] = second compound 10 µM, first compound 3.16 µM
[36] = second compound 10 µM, first compound 10 µM
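Note: spheroids exposed to compounds for one week before readout.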
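Throughout, for viability, T/C: percent viability relative to DMSO vehicle wells taken as 100%.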

COc1cc2cc(C(=O)CCC(=O)O)sc2cc1OC + Cc1cccc(N(C)C(=O)C2C(O)CCN2c2nc(C)cc(C(F)(F)F)c2C#N)c1
IC50 (second compound 0.0316 µM): > 10000 nM
IC50 (second compound 0.1 µM): > 10000 nM
IC50 (second compound 0.316 µM): > 10000 nM
IC50 (second compound 1 µM): > 10000 nM
IC50 (second compound 3.16 µM): > 10000 nM
IC50 (second compound 10 µM): > 10000 nM
viability, T/C [1]: 99.9%
viability, T/C [2]: 99.6%
viability, T/C [3]: 92%
viability, T/C [4]: 104%
viability, T/C [5]: 117%
viability, T/C [6]: 95.9%
viability, T/C [7]: 100%
viability, T/C [8]: 109%
viability, T/C [9]: 109%
viability, T/C [10]: 108%
viability, T/C [11]: 116%
viability, T/C [12]: 102%
viability, T/C [13]: 96%
viability, T/C [14]: 103%
viability, T/C [15]: 102%
viability, T/C [16]: 109%
viability, T/C [17]: 103%
viability, T/C [18]: 101%
viability, T/C [19]: 105%
viability, T/C [20]: 101%
viability, T/C [21]: 95.2%
viability, T/C [22]: 107%
viability, T/C [23]: 106%
viability, T/C [24]: 92.4%
viability, T/C [25]: 110%
viability, T/C [26]: 102%
viability, T/C [27]: 104%
viability, T/C [28]: 102%
viability, T/C [29]: 112%
viability, T/C [30]: 99.3%
viability, T/C [31]: 109%
viability, T/C [32]: 102%
viability, T/C [33]: 99.6%
viability, T/C [34]: 98.3%
viability, T/C [35]: 119%
viability, T/C [36]: 85.1%

COc1cc(C2c3cc4c(cc3C(OC3OC5COC(C)OC5C(O)C3O)C3COC(=O)C23)OCO4)cc(OC)c1O (stereo not drawn) + Nc1ccc(C#CCN(C(=O)Cc2ncc(C(F)(F)F)cc2C(F)(F)F)c2ccc(F)cc2)nn1
IC50 (second compound 0.0316 µM): 327 nM
IC50 (second compound 0.1 µM): 812 nM
IC50 (second compound 0.316 µM): 732 nM
IC50 (second compound 1 µM): 489 nM
IC50 (second compound 3.16 µM): 314 nM
IC50 (second compound 10 µM): 268 nM
viability, T/C [1]: 106%
viability, T/C [2]: 83.9%
viability, T/C [3]: 46.2%
viability, T/C [4]: 45.8%
viability, T/C [5]: 41.9%
viability, T/C [6]: 24.9%
viability, T/C [7]: 107%
viability, T/C [8]: 92.4%
viability, T/C [9]: 57.6%
viability, T/C [10]: 51.3%
viability, T/C [11]: 36.4%
viability, T/C [12]: 27.7%
viability, T/C [13]: 108%
viability, T/C [14]: 87.8%
viability, T/C [15]: 65.4%
viability, T/C [16]: 42.3%
viability, T/C [17]: 35.9%
viability, T/C [18]: 26.4%
viability, T/C [19]: 98.4%
viability, T/C [20]: 86.3%
viability, T/C [21]: 56.5%
viability, T/C [22]: 37%
viability, T/C [23]: 36%
viability, T/C [24]: 24.8%
viability, T/C [25]: 94.7%
viability, T/C [26]: 67.5%
viability, T/C [27]: 48.6%
viability, T/C [28]: 37.9%
viability, T/C [29]: 38.3%
viability, T/C [30]: 24.4%
viability, T/C [31]: 83.4%
viability, T/C [32]: 64%
viability, T/C [33]: 49.8%
viability, T/C [34]: 34.3%
viability, T/C [35]: 32.3%
viability, T/C [36]: 30.9%

COc1cccc2c1C(=O)c1c(O)c3c(c(O)c1C2=O)CC(O)(C(=O)CO)CC3OC1CC(N)C(O)C(C)O1 (stereo not drawn) + Nc1ccc(C#CCN(C(=O)Cc2ncc(C(F)(F)F)cc2C(F)(F)F)c2ccc(F)cc2)nn1
IC50 (second compound 0.0316 µM): 124 nM
IC50 (second compound 0.1 µM): < 31.6 nM
IC50 (second compound 0.316 µM): 89.2 nM
IC50 (second compound 1 µM): 79.2 nM
IC50 (second compound 3.16 µM): 58.4 nM
IC50 (second compound 10 µM): < 31.6 nM
viability, T/C [1]: 53.5%
viability, T/C [2]: 50.3%
viability, T/C [3]: 43.8%
viability, T/C [4]: 20.9%
viability, T/C [5]: 1.47%
viability, T/C [6]: 1.5%
viability, T/C [7]: 52%
viability, T/C [8]: 46.5%
viability, T/C [9]: 42.4%
viability, T/C [10]: 26.1%
viability, T/C [11]: 1.84%
viability, T/C [12]: 0.12%
viability, T/C [13]: 61.7%
viability, T/C [14]: 41.8%
viability, T/C [15]: 40.4%
viability, T/C [16]: 22.4%
viability, T/C [17]: 0.9%
viability, T/C [18]: 0.55%
viability, T/C [19]: 65.2%
viability, T/C [20]: 40.4%
viability, T/C [21]: 35.9%
viability, T/C [22]: 23.1%
viability, T/C [23]: 2.85%
viability, T/C [24]: 0.37%
viability, T/C [25]: 52.8%
viability, T/C [26]: 48%
viability, T/C [27]: 35.2%
viability, T/C [28]: 23.5%
viability, T/C [29]: 1.29%
viability, T/C [30]: 0.18%
viability, T/C [31]: 46.3%
viability, T/C [32]: 38.1%
viability, T/C [33]: 27.4%
viability, T/C [34]: 14.9%
viability, T/C [35]: 0.84%
viability, T/C [36]: 0.33%

O=c1[nH]cc(F)c(=O)[nH]1 + Nc1ccc(C#CCN(C(=O)Cc2ncc(C(F)(F)F)cc2C(F)(F)F)c2ccc(F)cc2)nn1
IC50 (second compound 0.0316 µM): 479 nM
IC50 (second compound 0.1 µM): 509 nM
IC50 (second compound 0.316 µM): 529 nM
IC50 (second compound 1 µM): 529 nM
IC50 (second compound 3.16 µM): 278 nM
IC50 (second compound 10 µM): 437 nM
viability, T/C [1]: 101%
viability, T/C [2]: 82.2%
viability, T/C [3]: 56.6%
viability, T/C [4]: 38.9%
viability, T/C [5]: 35.9%
viability, T/C [6]: 37.5%
viability, T/C [7]: 93.3%
viability, T/C [8]: 92.2%
viability, T/C [9]: 53.7%
viability, T/C [10]: 43.5%
viability, T/C [11]: 44.9%
viability, T/C [12]: 45.6%
viability, T/C [13]: 103%
viability, T/C [14]: 77.6%
viability, T/C [15]: 60.6%
viability, T/C [16]: 35.6%
viability, T/C [17]: 42%
viability, T/C [18]: 39.7%
viability, T/C [19]: 97.5%
viability, T/C [20]: 89.7%
viability, T/C [21]: 57.5%
viability, T/C [22]: 40.7%
viability, T/C [23]: 38.4%
viability, T/C [24]: 39.7%
viability, T/C [25]: 95.1%
viability, T/C [26]: 90.5%
viability, T/C [27]: 44.8%
viability, T/C [28]: 41.6%
viability, T/C [29]: 36.4%
viability, T/C [30]: 37.5%
viability, T/C [31]: 91.1%
viability, T/C [32]: 75.7%
viability, T/C [33]: 55.5%
viability, T/C [34]: 38.2%
viability, T/C [35]: 35.7%
viability, T/C [36]: 37.6%
